Assays:
[1] = test system: Bacillus cereus ATCC 10702 NCTC 8035; assay: Antimicrobial activity, serial dilution technique in Mueller–Hinton Broth 2; assay type: cell-based; settings: average of three ± SD, - means non-active
Procedure, shortened: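 Compounds were serially diluted in Mueller–Hinton Broth 2 and inoculated with the Gram-positive strain Bacillus cereus ATCC 10702 NCTC 8035 at 3.0 × 10^5 cfu/mL, then incubated at 37 °C. Observations were taken every 24 h over 5 days in three repeat experiments. The MIC was the lowest concentration that stopped growth, with bacteriostatic absence of growth also noted.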

[2] = test system: Enterococcus faecalis ATCC 2921; assay: as above; assay type: cell-based; settings: average of three ± SD, - means non-active; for MBC / MIC: Enterococcus faecalis, ATCC2921, Ef; for MBC: read-out: Minimum Bactericidal and Fungicidal Concentration (MBC, MFC), Ef; for MIC: read-out: Minimum Inhibitory Concentration (MIC), Ef
Procedure, shortened: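 Antibacterial activity against Enterococcus faecalis ATCC 2921 was assessed by serial dilution in Mueller–Hinton Broth 2 with a bacterial load of 3.0 × 10^5 cfu/mL. Cultures were incubated at 37 °C, with growth recorded every 24 h for 5 days, and the experiment was performed three times.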

[3] = test system: Escherichia coli ATCC 25922; assay: as above; assay type: cell-based; settings: average of three ± SD, - means non-active; for MIC: Escherichia coli, ATCC25922, Ec, read-out: Minimum Inhibitory Concentration (MIC), Ec
Procedure, shortened: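 Growth inhibition is scored in Mueller–Hinton Broth 2 dilution series seeded with 3.0 × 10^5 cfu/mL and held at 37 °C for up to 5 days. Values reported are MICs, the lowest concentration without growth.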

[4] = test system: Staphylococcus aureus ATCC 6538P FDA 209P; assay: as above; assay type: cell-based; settings: average of three ± SD, - means non-active
Procedure, shortened: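 Using a broth serial dilution method in Mueller–Hinton Broth 2, S. aureus ATCC 6538P FDA 209P (3.0 × 10^5 cfu/mL) was exposed to compounds at 37 °C and observed daily over 5 days. MIC was the lowest concentration preventing growth; bacteriostatic absence of growth was also noted, with three replicate experiments.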

[5] = test system: methicillin-resistant S. aureus MRSA-1; assay: as above; assay type: cell-based, Staphylococcus aureus; settings: - means non-active; for MIC: read-out: Minimum Inhibitory Concentration (MIC), MRSA-1
Procedure, shortened: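 Antimicrobial activity against methicillin-susceptible Staphylococcus aureus MRSA-1, a hospital isolate from a chronic tonsillitis patient that is resistant to fluoroquinolones and beta-lactams, was determined by serial dilution in Mueller–Hinton Broth 2. The bacterial load was 3.0 × 10^5 cfu/mL, incubation was at 37 °C, and growth was recorded every 24 h for 5 days.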

[6] = test system: methicillin-resistant S. aureus MRSA-2; assay: as above; assay type: cell-based, Staphylococcus aureus; settings: - means non-active
Procedure, shortened: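 Antimicrobial activity against methicillin-susceptible Staphylococcus aureus MRSA-2, a beta-lactam-resistant clinical isolate from a sinusitis patient at the Republican Clinical Hospital (Kazan), was assessed by serial dilution in Mueller–Hinton Broth 2. The inoculum was 3.0 × 10^5 cfu/mL. Cultures were incubated at 37 °C and read every 24 h for 5 days, in three repeat experiments.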

[7] = test system: Candida albicans ATCC 10231; assay: Fungicidal activity, serial dilution technique; assay type: cell-based; settings: average of three ± SD, - means non-active
Procedure, shortened: (§1)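 Broth serial dilution in Mueller–Hinton Broth 2 at 3.0 × 10^5 cfu/mL, incubated at 37 °C with growth scored every 24 h for 5 days. MIC taken as lowest concentration inhibiting growth; three repeats.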

[8] = test system: Trichophyton mentagrophytes var. gypseum 1773; assay: Fungicidal activity, serial dilution technique; assay type: cell-based; settings: Tm, average of three ± SD, - means non-active
Procedure, shortened: as §1

[9] = test system: human erythrocytes; assay: Hemolytic activity; assay type: cell-based; settings: red blood cells
Excerpt: An important characteristic when assessing the biological activity of new chemical compounds is their cytotoxic effect on eukaryotic cells. The ability of an investigated compound to cause the destruction of human erythrocytes illustrates its toxic effect on the internal environment. The hemolysis assay is a simple screening test that can help in the study of cytotoxicity in more complex models. Cell lines obtained from various human organs and tissues that allow for adequate estimation of the effects of new potential drugs on cell metabolism can serve as experimental models.
The hemolytic activity of the QPSs was estimated by comparing the optical density of a solution containing the test compound with that of blood at 100% hemolysis. The experiments were carried out as previously described.

[10] = test system: Chang liver cell line; assay: Cytotoxicity assay (Cytell Cell Imaging, DAPI/propidium iodide); assay type: cell-based, human; settings: for IC50: Homo sapiens, Chang liver, read-out: IC50 (concentration that causes the death of 50% of the cells), Chang liver cells
[11] = test system: Escherichia coli ATCC 25922; assay: Antimicrobial activity, serial dilution technique in Mueller–Hinton Broth 2; assay type: cell-based; settings: average of three ± SD, - means non-active; for MBC: Escherichia coli, ATCC25922, Ec, read-out: Minimum Bactericidal and Fungicidal Concentration (MBC, MFC), Ec
[12] = Staphylococcus aureus, MRSA, MRSA-1 (resistant to fluoroquinolones and beta-lactams)

CCCCCCCCCC[P+](C(C)(C)C)(C(C)(C)C)C(C)(C)C [Compound 10b]
Minimum Bactericidal and Fungicidal Concentration (MBC, MFC), Bc [1]: 125 ± 9 µg/mL | Minimum Inhibitory Concentration (MIC), Bc [1]: 7.8 ± 0.6 µg/mL | Minimum Bactericidal and Fungicidal Concentration (MBC, MFC), Ef ([2]; Ef): 15.6 ± 1.2 µg/mL | Minimum Inhibitory Concentration (MIC), Ef ([2]; Ef): 15.6 ± 1.3 µg/mL | Minimum Inhibitory Concentration (MIC), Ec ([3]; Ec): 62.5 ± 5.4 µg/mL | Minimum Bactericidal and Fungicidal Concentration (MBC, MFC), Sa [4]: 3.9 ± 0.2 µg/mL | Minimum Inhibitory Concentration (MIC), Sa [4]: 3.9 ± 0.2 µg/mL | Minimum Inhibitory Concentration (MIC), MRSA-1 ([5]; MRSA-1 (resistant to fluoroquinolones and beta-lactams)): 1.9 ± 0.1 µg/mL | Minimum Bactericidal and Fungicidal Concentration (MBC, MFC), MRSA-1 ([5]; MRSA-1): 15.6 ± 1.3 µg/mL | Minimum Inhibitory Concentration (MIC), MRSA-2 ([6]; MRSA-2 (resistant to beta-lactams)): 3.9 ± 0.2 µg/mL | Minimum Bactericidal and Fungicidal Concentration (MBC, MFC), MRSA-2 ([6]; MRSA-2): 7.8 ± 0.6 µg/mL | Minimum Bactericidal and Fungicidal Concentration (MBC, MFC), Ca ([7]; Ca): 31.3 ± 2.2 µg/mL | Minimum Inhibitory Concentration (MIC), Ca ([7]; Ca): 31.3 ± 2.4 µg/mL | Minimum Bactericidal and Fungicidal Concentration (MBC, MFC), Tm [8]: 125 ± 10 µg/mL | Minimum Inhibitory Concentration (MIC), Tm [8]: 125 ± 10 µg/mL | HC50 (concentration that causes 50% hemolysis of erythrocytes) [9]: > 125 µg/mL | IC50 (concentration that causes the death of 50% of the cells) ([10]; Chang liver cells): 71 µg/mL | Minimum Bactericidal and Fungicidal Concentration (MBC, MFC), Ec ([11]; Ec): 62.5 ± 5.5 µg/mL

CCCCCCCCCC[P+](C(C)(C)C)(C(C)(C)C)C(C)(C)C [Compound 10a]
MIC ([1]; Bacillus cereus, Bc, read-out: Minimum Inhibitory Concentration (MIC), Bc): 3.9 ± 0.2 µg/mL | Minimum Bactericidal and Fungicidal Concentration (MBC, MFC), Bc [1]: 31.3 ± 2.5 µg/mL | MBC [2]: 7.8 ± 0.6 µg/mL | MIC [2]: 7.8 ± 0.6 µg/mL | MIC [3]: 31.3 ± 2.7 µg/mL | Minimum Bactericidal and Fungicidal Concentration (MBC, MFC), Sa [4]: 1.9 ± 0.1 µg/mL | Minimum Inhibitory Concentration (MIC), Sa [4]: 1.9 ± 0.1 µg/mL | MIC [5, 12]: 1.9 ± 0.1 µg/mL | MBC ([5]; Staphylococcus aureus, MRSA, MRSA-1, read-out: Minimum Bactericidal and Fungicidal Concentration (MBC, MFC), MRSA-1): 15.6 ± 1.2 µg/mL | MIC ([6]; Staphylococcus aureus, MRSA, MRSA-2 (resistant to beta-lactams), read-out: Minimum Inhibitory Concentration (MIC), MRSA-2): 3.9 ± 0.2 µg/mL | MBC ([6]; Staphylococcus aureus, MRSA, MRSA-2, read-out: Minimum Bactericidal and Fungicidal Concentration (MBC, MFC), MRSA-2): 3.9 ± 0.2 µg/mL | MBC ([7]; Candida albicans, ATCC10231, Ca, read-out: Minimum Bactericidal and Fungicidal Concentration (MBC, MFC), Ca): 31.3 ± 2.3 µg/mL | MIC ([7]; Candida albicans, ATCC10231, Ca, read-out: Minimum Inhibitory Concentration (MIC), Ca): 31.3 ± 2.6 µg/mL | MBC ([8]; Trichophyton mentagrophytes, read-out: Minimum Bactericidal and Fungicidal Concentration (MBC, MFC), Tm): 125 ± 11 µg/mL | MIC ([8]; Trichophyton mentagrophytes, read-out: Minimum Inhibitory Concentration (MIC), Tm): 125 ± 11 µg/mL | HC50 (concentration that causes 50% hemolysis of erythrocytes) [9]: > 125 µg/mL | IC50 [10]: 66 µg/mL | MBC [11]: 31.3 ± 2.6 µg/mL

CCCCCCCCC[P+](C(C)(C)C)(C(C)(C)C)C(C)(C)C [Compound 9a]
MBC ([1]; Bacillus cereus, Bc, read-out: Minimum Bactericidal and Fungicidal Concentration (MBC, MFC), Bc): 125 µg/mL | MBC [2]: 125 µg/mL | MIC [2]: 62.5 µg/mL | MIC [3]: 125 µg/mL | MBC ([4]; Staphylococcus aureus, Sa, read-out: Minimum Bactericidal and Fungicidal Concentration (MBC, MFC), Sa): 15.6 µg/mL | MIC ([4]; Staphylococcus aureus, Sa, read-out: Minimum Inhibitory Concentration (MIC), Sa): 7.8 µg/mL | MIC [5, 12]: 7.8 µg/mL | HC50 (concentration that causes 50% hemolysis of erythrocytes) [9]: > 125 µg/mL | IC50 [10]: > 100 µg/mL | MBC [11]: 125 µg/mL

Source: publication PMC8744835, “Sterically Hindered Quaternary Phosphonium Salts (QPSs): Antimicrobial Activity and Hemolytic and Cytotoxic Properties” (International Journal of Molecular Sciences, 2021)
